Data on 1 compound can be found in patent US20240122932A1, “Methods of Treating B-Cell Malignancy Using Bcl-2 Inhibitor” (BeiGene Switzerland GmbH, priority 2021, published 2024).

Entries after “also recorded” stand apart in the source; their conditions may differ.

The subject of test [1] is JeKo-1 human mantle cell lymphoma (MCL) subcutaneous xenograft. The experiment in a line: JeKo-1 human MCL subcutaneous xenograft model, Bcl-2 inhibitor with BTK inhibitor. It is filed as in vivo, NCG mice. As to conditions: for TGI (%): day 21. As for the experimental part:
JeKo-1 cells were maintained as suspension cell cultures at 37° C. in a 5% CO2 atmosphere. Five to six-week-old female NCG mice were purchased from Gempharmatech of Information Technology Center. All animals were maintained under specific pathogen free (SPF) “full barrier” condition with free access to food and water. […] Mice were fed with complete granulated feed with Co60 radiosterilization (Beijing Ke Ao Xie Li Feed Co., Ltd.). All experiments were carried out in accordance with BeiGene's IACUC.
Re-suspended cells were placed on ice prior to inoculation. […] Each animal was injected subcutaneously with 1×10^7 cells in 200 μL of cell suspension in the right front flank via a 26-gauge needle. After implantation, primary tumor volume was measured in two dimensions using a caliper.
Transplanted animals were randomized into 8 groups with 10 mice per group on day 0 according to transplantation sequence and body weight. […] Treatments were administered by oral gavage (p.o.) in a volume of 10 mL/kg body weight. Body weight was assessed immediately before dosing and volume dosed was adjusted accordingly.
Individual body weight was recorded twice weekly, with mice being monitored daily for clinical signs of toxicity for the duration of the study. Mice were euthanized using carbon dioxide when their tumor volume reached 2,000 mm^3, the tumor was ulcerated, or body weight loss exceeded 20%.
Tumor volume (TV) was calculated using the formula: TV=0.5×(a×b^2) where a and b are the long and short diameters of the tumor, respectively. […] (treated t=treated tumor volume at time t, vehicle t=vehicle tumor volume at time t)
In general terms: Xenograft models place foreign cells or tissue in a host animal.

Test [2] concerns patients with R/R B-cell malignancies. Description: phase 1 clinical study: efficacy (response, ALC, SPD). It is filed as in vivo, human. The protocol:
A phase 1 study (dose escalation and safety expansion) to determine safety, tolerability, maximum tolerated dose ([…]), and recommended phase 2 dose (RP2D) of Compound 1 in patients with R/R B-cell malignancies was conducted. (Table 6-1A).
Part 1 Monotherapy Ramp-Up Schedule and Dose Finding • 1) Cohort 1A: Cohort 1A consists of patients with relapsed/refractory B-cell non-Hodgkin lymphoma (R/R B-cell NHL) excluding mantle cell lymphoma (MCL). These patients are expected to be at low risk of tumor lysis syndrome (low TLS risk), and are treated with a short ramp-up schedule reaching target dose on Day 3. Patients in this cohort receive escalating doses of Compound 1 monotherapy: 40 mg, 80 mg, 160 mg, 320 mg, and 640 mg (unless adjusted by Safety Monitoring Committee [SMC] recommendation). • 2) Cohort 1B is opened, when ≥1 tolerable dose level of Cohort 1A was determined. It consists of patients with low-tumor-burden R/R CLL/SLL. This cohort pursues dose finding, including evaluation of both ramp-up schedule and target dose. Patients increase the ramp-up dose weekly until the target dose for the cohort is reached. The ramp-up steps is 1 mg, 2 mg, 5 mg, 10 mg, 20 mg, 40 mg, 80 mg, 160 mg, 320 mg, and 640 mg (unless adjusted by SMC recommendation). […]. • 3) Cohort 1C: This Cohort consists of patients with high-tumor-burden R/R chronic lymphocytic leukemia/small lymphocytic lymphoma (R/R CLL/SLL). This cohort will not be dosed until the RP2D for Cohort 1B is established. The objective of this cohort is to confirm, in patients with high-tumor-burden CLL/SLL, the safety of the monotherapy ramp-up schedule and RP2D established in patients with low-tumor-burden CLL/SLL. • 4) Cohort 1D: This Cohort consists of patients with R/R MCL. This cohort will not be dosed until the RP2D for Cohort 1B is established. The objective of this cohort is to confirm, in patients with R/R MCL, the safety of the monotherapy ramp-up schedule and RP2D established in patients with low tumor-burden CLL/SLL. • Cohort 1D′: This Cohort consists of patients with R/R MCL. And, the target dosage are 160 and 320 mg. • 5) Cohort 1E: This Cohort consists of patients with R/R waldenstrom macroglobulinemia (R/R WM). This cohort will not be dosed until the RP2D for Cohort 1B is established. The objective of this cohort is to confirm, in patients with R/R WM, the safety of the monotherapy ramp-up schedule and RP2D established in patients with low tumor-burden CLL/SLL.
The study also includes dose escalation and expansion cohorts for the combination of Compound 1 and Bruton tyrosine kinase (BTK) inhibitor Zanubrutinib in patients with selected B-cell malignancy, such as CLL/SLL and mantle cell lymphoma (MCL). (Table 6-2A). Patients in the combination therapy cohorts receive Zanubrutinib 320 mg daily (160 mg twice a day [BID] or 320 mg once a day [QD]) beginning 8-12 weeks before Compound 1 is introduced. And, the corresponding dose-escalation and expansion are conducted in Part 3 and Part 4):
Dose finding is pursued in Patients with R/R CLL/SLL or R/R MCL who are Bel-2-inhibitor naive and have not progressed on a BTK inhibitor, including evaluation of ramp-up schedule and target dose of Compound 1 when used in combination with Zanubrutinib. The Compound 1 dose vary but the Zanubrutinib dose is fixed at 320 mg/day (160 mg twice daily or 320 mg once daily). The ramp-up dose increases weekly until the target dose for the cohort is reached. The ramp-up steps for Compound 1 are 1 mg, 2 mg, 5 mg, 10 mg, 20 mg, 40 mg, 80 mg, 160 mg, 320 mg, and 640 mg (unless adjusted by SMC recommendation).
In all Cohorts of the phase 1 study, Compound 1 is orally administrated once daily (QD). […]

In the case of `CC(C)c1ccccc1[C@@H]1CCCN1C1CC2(CCN(c3ccc(C(=O)NS(=O)(=O)c4ccc(NCC5CCC(C)(O)CC5)c([N+](=O)[O-])c4)c(Oc4cnc5[nH]ccc5c4)c3)CC2)C1` (stereo partly drawn) [Compound 1, 2-((1H-pyrrolo[2,3-b]pyridin-5-yl)oxy)-N-((4-((((1r,4r)-4-hydroxy-4-methylcyclohexyl)methyl)amino)-3-nitrophenyl)sulfonyl)-4-(2-((S)-2-(2-isopropylphenyl)pyrrolidin-1-yl)-7-azaspiro[3.5]nonan-7-yl)benzamide], the “Mean TV (D 21) (mm^3 ± SEM)” value in test [1] (5 mpk p.o. QD) turned out to be 1293.3 ± 100.0 mm^3; in test [1] (15 mpk p.o. QD), 929.5 ± 73.6 mm^3; in test [1] (50 mpk p.o. QD), 927.5 ± 100.6 mm^3. Also, the “TGI (%)” value in test [1] (5 mpk p.o. QD, 5 mg/kg) worked out at 29%; in test [1] (15 mpk p.o. QD, 15 mg/kg), 49%; in test [1] (50 mpk p.o. QD, 50 mg/kg) it was 49%. Besides, in test [2] (CLL/SLL monotherapy, 36-patient data, 80-mg dose level, del (17p) CLL), the “early response in CLL” value was 1 of 4 patients with CLL reached first response assessment and achieved partial response. The “patients achieving a response” value in test [2] (NHL, monotherapy, 36-patient data, about 5 months of treatment duration, including 1 CR) is recorded as 2 patients. In addition, the “patients achieving partial response with lymphocytosis (PR-L) or better” value in test [2] (monotherapy, R/R CLL/SLL, four of 6 patients, at either 80 or 160 mg) is recorded as 67%. Further, the patients responded in test [2] (monotherapy, R/R NHL, two of 20 patients, 1 PR at 160 mg and 1 CR at 320 mg) turned out to be 10%. Besides, in test [2] (monotherapy, R/R WM, one of 2 patients, at 80 mg), the “patients with minor response” value came out at 50%. For the same compound, the “reduction in SPD from baseline” value in test [2] (monotherapy, patients with R/R NHL) is recorded as “significant reduction in SPD form baseline were seen in most patients; also recorded: significant reduction in SPD from baseline were seen in most patients”. Also, the “reduction in absolute lymphocyte count (ALC)” value in test [2] (patients with CLL during ramp-up, monotherapy and combination therapy, seen at dose levels as low as 1 mg) is “significant reduction in absolute lymphocyte count (ALC) was noted among all patients with CLL during ramp-up”. In addition, in test [2] (patients with CLL, monotherapy or combination with Zanubrutinib), the “blood MRD (minimal residual disease) negativity” value is “negativity was observed in 160 mg cohorts after 6 months treatment but not in 40 mg and 80 mg cohorts”.
